The results in this text go back to ChEMBL document CHEMBL3244033, “Potential antitumor agents. 21. Dialkanolamine dialkanesulfonic esters” (J Med Chem, 1977).

SMILES strings stand for the structures.

The nature of data set [1]: Dissociation constant, pKa of the compound. It counts as physicochemical.
In another data set the test system is L1210. Briefly: Antileukemic activity against mouse L1210 cells allografted in ip dosed C3H/HeJ female X DBA2/J male F1 hybrid mouse assessed as maximal increase in host life span at LD10 administered as single dose 24 hrs after tumor implantation. It counts as functional.
The subject of another data set is Mus musculus. The data set can be described thus: Acute toxicity in ip dosed C3H/HeJ female X DBA2/J male F1 hybrid mouse allografted with mouse L1210 cells assessed as mortality administered as single dose. In kind it is organism-based. The note with it: in vivo.
The nature of data set [2]: Lipophilic-hydrophilic balance, Rm of the compound using mixture of glycerol, i-BuOH and 1-pentanol plus methanesulfonic acid as solvent system by acidic reversed-phase chromatography. It counts as physicochemical.

`CS(=O)(=O)OCCCNCCCOS(C)(=O)=O.Cl`: the pKa in data set [1] worked out at 8.77. Besides, the Activity in the data set with L1210 is listed as 84%. Further, in the data set with Mus musculus, the LD10 came to 170 mg/kg. For the same compound, in data set [2], the Rm is on record as -0.88.
For the compound `CS(=O)(=O)OCCNCCOS(C)(=O)=O.Cl`, the Activity with L1210 is >25%. Besides, in the data set on Mus musculus, the LD10 worked out at 25 mg/kg. Moreover, the Rm in data set [2] is on record as -1.13.
For `CCS(=O)(=O)OCCNCCOS(=O)(=O)CC.Cl`, in that order: 26%, 35 mg/kg and -0.64.
Consider `CCCS(=O)(=O)OCCNCCOS(=O)(=O)CCC.Cl`, for which the Activity in the data set on L1210 is 57%. Besides, in the data set with Mus musculus, the LD10 stood at 210 mg/kg. For the same compound, the Rm in data set [2] is reported as -0.1.
As to `CCCCS(=O)(=O)OCCNCCOS(=O)(=O)CCCC.Cl`, the Activity in the data set with L1210 is 105%. The LD10 in the data set on Mus musculus stood at 750 mg/kg. In addition, in data set [2], the Rm worked out at 0.37.
Take `CCCCCS(=O)(=O)OCCNCCOS(=O)(=O)CCCCC.Cl`: in the data set on L1210, the Activity is recorded as 78%. Also, the LD10 in the data set on Mus musculus stood at 520 mg/kg. In addition, the Rm in data set [2] was 0.76.
For `CCS(=O)(=O)OCCCNCCCOS(=O)(=O)CC.Cl` the same measures were 100%, 410 mg/kg and -0.47.
For `CCCS(=O)(=O)OCCCNCCCOS(=O)(=O)CCC.Cl`, the Activity in the data set on L1210 turned out to be 75%. The LD10 with Mus musculus is 285 mg/kg. Moreover, the Rm in data set [2] is reported as 0.09.
In the case of `CCCCS(=O)(=O)OCCCNCCCOS(=O)(=O)CCCC.Cl`, in data set [2], the Rm was 0.45.
In the case of `CS(=O)(=O)OCCCCCCNCCOS(C)(=O)=O.Cl`, the Activity with L1210 amounted to 91%. In addition, the LD10 in the data set with Mus musculus is 185 mg/kg. In data set [2], the Rm is given as -0.71.
For `CCS(=O)(=O)OCCCCCCNCCOS(=O)(=O)CC.Cl` the same measures were 83%, 285 mg/kg and -0.19.
Turning to `CCCS(=O)(=O)OCCCCCCNCCOS(=O)(=O)CCC.Cl`, the Activity in the data set on L1210 turned out to be 59%. In addition, in the data set on Mus musculus, the LD10 came out at 225 mg/kg. Also, the Rm in data set [2] worked out at 0.27.
Consider `CCCCS(=O)(=O)OCCNCCCCCCOS(=O)(=O)CCC.Cl`, for which the Activity with L1210 is recorded as 35%. Besides, the LD10 in the data set on Mus musculus was 200 mg/kg. In data set [2], the Rm worked out at 0.51.
`CS(=O)(=O)OCCCCCCNCCCOS(C)(=O)=O.Cl`: the Activity with L1210 is 107%. For the same compound, the LD10 in the data set on Mus musculus is 33 mg/kg. For the same compound, the Rm in data set [2] is on record as -0.65.
Regarding `CCS(=O)(=O)OCCCCCCNCCCOS(=O)(=O)CC.Cl`, the Activity with L1210 is 78%. In the data set with Mus musculus, the LD10 is 61 mg/kg. For the same compound, the Rm in data set [2] is -0.05.
On to `CCCS(=O)(=O)OCCCCCCNCCCOS(=O)(=O)CCC.Cl`, for which the Activity in the data set on L1210 worked out at 45%. In addition, the LD10 with Mus musculus was found to be 137 mg/kg. Also, the Rm in data set [2] was found to be 0.32.

One may read the pKa as the pH at which an ionisable group is half protonated. Read a high pKa as a weaker acid or stronger base.
